Among the data in ChEMBL document CHEMBL1151894, “Novel immunoconjugates comprised of streptonigrin and 17-amino-geldanamycin attached via a dipeptide-p-aminobenzyl-amine linker system” (Bioorg Med Chem Lett, 2009) are IC50 values, retold here.

Holding throughout (assay type): functional, cell-based
One experiment relates to KARPAS-299. In words: Cytotoxicity against CD30 expressing and CD70 deficient human KARPAS299 cells after 96 hrs by resazurin conversion assay. As to conditions: KARPAS-299, 96 h. In general terms: The colour change of resazurin is a common sign of viable cells or microbes.
Another experiment has as its system CAKI-1. In words: Cytotoxicity against CD30 deficient and CD70 expressing human Caki1 cells after 96 hrs by resazurin conversion assay. Particulars: CAKI-1, 96 h.
The nature of experiment [1]: Cytotoxicity against CD30 expressing and CD70 deficient human L540cy cells after 96 hrs by resazurin conversion assay.

Each structure is given as a SMILES string.

The IC50 is the point on the concentration scale where inhibition reaches its midpoint.

As for `COC1=C(N)C(=O)c2nc(-c3nc(C(=O)O)c(C)c(-c4ccc(OC)c(OC)c4O)c3N)ccc2C1=O` [STREPTONIGRIN], the IC50 in the experiment with KARPAS-299 came out at 0.4 nM; in the experiment with CAKI-1, 0.4 nM; in experiment [1], 0.8 nM.
